In one assay the test system is TNF-α. The assay is described as follows: Human monocyte assay, LPS-stimulated TNF-α (ELISA). In kind it is cell-based. As to conditions: human monocytes, 1 μg/ml LPS, 5 hours, read-out: TNFα (IC50). On the procedure: The assay was designed as in the reference, Physiol. Res., 2003, 52, 593-598, the disclosure of which is incorporated by reference for the teaching of the assay.
Peripheral blood mononuclear cells (hPBMC) were harvested from human blood and suspended in RPMI 1640 culture medium containing 10% FCS, 100 U/mL penicillin and […] streptomycin (assay medium). Monocytes in the hPBMCs were counted using a Coulter Counter following which the cells were resuspended at 2×10^5 monocytes/mL. A cell suspension containing 2×10^4 monocytes was aliquoted per well of a 96-well plate. Subsequently, the hPBMCs were incubated for 4-5 hours at 37° C. under 5% CO2 (During the incubation, the monocytes adhered to the bottom of 96-well plastic culture plate). Following the incubation, the non-adherent lymphocytes were washed with assay medium and the adherent monocytes re-fed with assay medium. After a 48-hour incubation period (37° C., 5% CO2), monocytes were pretreated with various concentrations of compounds of Example 1-40 (prepared in DMSO) or vehicle (0.5% DMSO) for 30 minutes and stimulated with 1 μg/ml LPS (Escherchia coli 0111:B4, Sigma Chemical Co., St. Louis, Mo.). The incubation was continued for 5 hours at 37° C., 5% CO2. Supernatants were harvested, assayed for IL-6 and TNF-α by ELISA as described by the manufacturer (BD Biosciences, USA). Dexamethasone (10 μM) was used as standard for this assay. The 50% inhibitory concentration (IC50) values were calculated by a nonlinear regression method. In all experiments, a parallel plate was run to ascertain the toxicity of compounds of Example 1-40. The toxicity was determined using the MTS assay as described in Am. J. Physiol. Cell Physiol., 2003, 285, C813-C822.

The test system of the next assay is U 373. Description: Cytotoxicity, propidium iodide assay, U 373. The class given is cell-based. As to conditions: Homo sapiens, U373 MG; Glioblastoma, U 373, 48 hours treatment; read-out: IC50, C7a (U 373). In outline:
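Cells seeded at 3000 cells/well, incubated 18-24 hours at 37° C./5% CO2, then exposed to a range of compound concentrations for 48 hours. After a PBS wash, 7 μg/ml propidium iodide was added, plates frozen at −70° C. for at least 24 hours, thawed and read by fluorescence; IC50 from viability relative to untreated wells.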

A further assay deals with mTOR. Description: mTOR activity assay (cell-based). As to conditions: Homo sapiens, Ovarian cell line A2780. On the procedure:
The assay was designed as in the reference, Biochemical Journal, 2000, 350, 717-722, the disclosure of which is incorporated by reference for the teaching of the assay.
Seed cells (Ovarian cell line A2780, ATCC) were plated in a 96 well microtitre plate at a density of 50,000 cells/cm^2 in appropriate complete cell culture medium. The cells were allowed to adhere for 18-24 hours. The cells were allowed to starve for 24 hours. The cells were pretreated (in triplicates) with the compounds of Example 1-40 (stock solution was prepared in DMSO and subsequent dilutions were made in kinase buffer) at a concentration of 10 μM for one hour. Then the cells were stimulated with 20% FCS for 30 minutes. A typical assay would consist of a set of unstimulated cells, a set of stimulated cells and a set of cells treated with compounds of Example 1-40 and a set of cells treated with the stimulator. The medium was discarded. The cells were fixed with 100 μL of 3.7% formaldehyde for 15 minutes. The formaldehyde was discarded by inverting the plate and tapping it on a thick tissue paper layer to remove traces. The cells were washed and permeabilized with 200 μL PBS+Triton-X 100 solution (hereafter referred to as PBS-Triton, containing 0.1% triton-X 100 in 1×PBS) three times, incubating the cells each time for 5 minutes. 100 μL blocking solution (10% FCS in PBS-Triton) was added and incubated for 1 hour at 25° C. The blocking solution was discarded and cells were incubated with the primary antibody in PBS-Triton at a dilution of 1:500 for 1 hour at RT (25° C.). [The primary antibody is Phospho-AKT (Ser 473); Cell Signaling; USA, Cat. No. 9271]. The primary antibody solution was discarded and the cells were washed 3 times with PBS-Triton solution and incubated with the HRP-conjugated secondary antibody in PBS-Triton at a dilution of 1:500 for 1 hour at RT (25° C.). The cells were washed 3 times with PBS-Triton followed by two washes with PBS (to remove traces of triton-X 100). The OPD (o-phenylene diamine dihydrochloride) substrate was prepared for detection of the signal by dissolving one tablet set (two tablets) of SigmaFast OPD (Sigma, USA, Cat No. P9187) in 20 mL distilled water. It should be kept protected from light. 100 μL OPD solutions was added to the wells and the plate was incubated in the dark for 3-5 minutes (depending upon the development of the color). The reaction was stopped by adding 50 μL 2 NH2SO4. The absorbance was measured at 490 nm. The values were expressed in the treated samples, in terms of percentage or fold decrease in AKT phosphorylation with respect to the induced sample. PI-103 (Calbiochem, USA) was used as a standard.

Another assay concerns BxPC3. The assay is described as follows: Cytotoxicity, propidium iodide assay, BxPC3. The class given is cell-based. As to conditions: Homo sapiens, BXPC-3; Pancreatic, BxPC3, 48 hours treatment; read-out: IC50, C5c (BxPC3). Here is the method: (§1) The assay was designed as in the reference, Anticancer Drugs, 2002, 13, 1-8, the disclosure of which is incorporated by reference for the teaching of the assay.
(§2) Cells from cell lines as mentioned in the table given below were seeded at a density of 3000 cells/well in a white opaque 96-well plate. Following incubation at 37° C./5% CO2 for a period of 18-24 hours, the cells were treated with various concentrations (stock solution was prepared in DMSO and subsequent dilutions were made in media as per ATCC guidelines) of the compounds of Example 1-40 was for a period of 48 hours. At the end of treatment, the spent culture medium was discarded, the cells were washed with 1×PBS and 200 μl of 7 μg/ml propidium iodide was added to each well. The plates were frozen at −70° C. for at least 24 hours. For analysis, the plates were brought to RT, allowed to thaw and were read in PoleStar fluorimeter with the fluorescence setting. The percentage of viable cells in the non-treated set of wells was considered to be 100 and the percentage viability following treatment was calculated accordingly. IC50 values were calculated from graphs plotted using these percentages. Table 4 depicts the IC50 values of compounds of Example 1-40 in individual cell lines.
(§3) The abbreviations for the Cell Lines as used in Table 4 are: […]

The next assay concerns T47D. The assay is described as follows: Cytotoxicity, propidium iodide assay, T47D. In kind it is cell-based. As to conditions: Homo sapiens, Breast, 48 hours treatment, read-out: IC50, C6e (T47D). Here is the method:
as §1, §2, §3

For the next assay, the system named is MDA MB 231. The assay is described as follows: Cytotoxicity, propidium iodide assay, MDA MB 231. In kind it is cell-based. As to conditions: Homo sapiens; Breast, MDA MB 231, 48 hours treatment; read-out: IC50, C6a (MDA MB 231). On the procedure:
as §1, §2, §3

The test system of the next assay is BT 549. The assay is described as follows: Cytotoxicity, propidium iodide assay, BT 549. The class given is cell-based. As to conditions: Homo sapiens; Breast, BT 549, 48 hours treatment; read-out: IC50, C6d (BT 549). Here is the method: as §1, §2, §3
In the next assay the test system is MCF7. The assay is described as follows: Cytotoxicity, propidium iodide assay, MCF7. As to conditions: Homo sapiens; Breast, MCF7, 48 hours treatment; read-out: IC50, C6c (MCF7). In kind it is cell-based. Here is the method: as §1, §2, §3

Where only a bound is given, the exact number is not on record here.

As for `CC(C)(C#N)c1ccc(-n2c(=O)n(C(=O)c3ccccc3)c3cnc4ccc(Br)cc4c32)cc1` [Example 30, 2-(4-(3-Benzoyl-8-bromo-2-oxo-2,3-dihydro-1H-imidazo[4,5-c]quinolin-1-yl)phenyl)-2-methylpropanenitrile], the concentration for half-maximal inhibition (IC50) in the assay on TNF-α, in the assay on U 373 and in the assay with BxPC3 was no more than 1000 nM in each case. The compound also came in with an inhibition at 10 µM in the assay with mTOR of 10 to 50%.

As for `C/C=C/C(=O)n1c(=O)n(-c2ccc(C(C)(C)C#N)cc2)c2c3cc(Br)ccc3ncc21` [Example 27, (E)-2-(4-(8-Bromo-3-but-2-enoyl-2-oxo-2,3-dihydro-1H-imidazo[4,5-c]quinolin-1-yl)phenyl)-2-methylpropanenitrile], the IC50 with T47D, with TNF-α, with MDA MB 231, in the assay on BT 549 and in the assay on MCF7 was no more than 1000 nM each time. This compound also displayed an inhibition at 10 µM in the assay with mTOR greater than 50%.

Consider `C/C=C/C(=O)n1c(=O)n(-c2ccc(C(C)(C)C#N)cc2)c2c3cc(Cl)ccc3ncc21` [Example 38, (E)-2-(4-(3-But-2-enoyl-8-chloro-2-oxo-2,3-dihydro-1H-imidazo[4,5-c]quinolin-1-yl)phenyl)-2-methylpropanenitrile], for which the half-inhibitory concentration (IC50) with T47D, in the assay with TNF-α, with MDA MB 231, with BT 549 and with MCF7 was no more than 1000 nM throughout. Besides, the inhibition at 10 µM with mTOR is greater than 50%.

Take `Cc1cccc(S(=O)(=O)n2c(=O)n(-c3ccc(C(C)(C)C#N)cc3)c3c4cc(Br)ccc4ncc32)c1` [Example 3, 2-(4-(8-Bromo-2-oxo-3-(m-tolylsulfonyl)-2,3-dihydro-1H-imidazo[4,5-c]quinolin-1-yl)phenyl)-2-methylpropanenitrile]: the results for the IC50 in the assay on U 373 and in the assay on BxPC3 were greater than 3000 nM and no more than 1000 nM, respectively.

Regarding `CC(C)(C#N)c1ccc(-n2c(=O)n(C(=O)c3ccccc3)c3cnc4ccc(Cl)cc4c32)cc1` [Example 37, 2-(4-(3-Benzoyl-8-chloro-2-oxo-2,3-dihydro-1H-imidazo[4,5-c]quinolin-1-yl)phenyl)-2-methylpropanenitrile], the half-inhibitory concentration (IC50) with TNF-α is no more than 1000 nM; in the assay with U 373 it was greater than 3000 nM. The compound further yielded an inhibition at 10 µM in the assay with mTOR of 10 to 50%.

The values are drawn from patent US8637670B2, “Imidazo [4,5-C]quinoline derivatives and their use in the treatment of tumors and/or inflammation” (Piramal Enterprises Limited, priority 2009, dated 2014).
